From US9827255B2, “Fumagillol derivatives” (Takeda Pharmaceutical Company Limited, priority 2014, dated 2017)
Like-named read-outs stand apart in the source and are kept apart here.

Experiments:
[1] = Body weight loss in high-fat diet C57bl/6 mice; assay type: in vivo; settings: once daily, 28 days, oral gavage, male C57bl/6 mice on high-fat diet, BW loss relative to pretreatment
Source text: Ten to twelve weeks old male C57bl/6 mice are obtained from commercial vendors, and placed on high-fat diet (60% kcal fat) for at least 15 weeks. Treatment with MetAP2 inhibitors is initiated when the average body weight reaches approximately 50 g. The MetAP2 inhibitors are formulated in an aqueous solution of 0.5% methyl cellulose and administered through oral gavage. Control animals receive the equivalent volume of aqueous 0.5% methyl cellulose solution without a MetAP2 inhibitor. Body weight (BW) and food intake are recorded daily, and efficacy is calculated individually as a percentage of BW loss relative to the pretreatment values. Depending on the study design, the treatment is continued for 12, 14 or 28 days. In some studies, indirect calorimetry or body composition are determined at the end of the treatment.
TABLE 2 lists body weight loss (BWL) in mice following treatment with some of the compounds shown in the examples. The compounds shown in TABLE 2 were tested in accordance with the BWL protocol described in the specification beginning at page 36, using the dose, dosing regimen (frequency), and treatment duration indicated in table.

MetAP2 [2] = target: T1, MetAP2 (Homo sapiens, UniProt P50579); test: MetAP2 cellular activity: Western blotting of NMet-14-3-3γ in HUVEC cells; assay type: cell-based; design: host or cells: HUVEC; settings: 24 hours, ratio of unprocessed N-Met14-3-3γ over β-actin, read-out: MetAP2 Cell pEC50 (converted)
T1 sequence (P50579 whole entry): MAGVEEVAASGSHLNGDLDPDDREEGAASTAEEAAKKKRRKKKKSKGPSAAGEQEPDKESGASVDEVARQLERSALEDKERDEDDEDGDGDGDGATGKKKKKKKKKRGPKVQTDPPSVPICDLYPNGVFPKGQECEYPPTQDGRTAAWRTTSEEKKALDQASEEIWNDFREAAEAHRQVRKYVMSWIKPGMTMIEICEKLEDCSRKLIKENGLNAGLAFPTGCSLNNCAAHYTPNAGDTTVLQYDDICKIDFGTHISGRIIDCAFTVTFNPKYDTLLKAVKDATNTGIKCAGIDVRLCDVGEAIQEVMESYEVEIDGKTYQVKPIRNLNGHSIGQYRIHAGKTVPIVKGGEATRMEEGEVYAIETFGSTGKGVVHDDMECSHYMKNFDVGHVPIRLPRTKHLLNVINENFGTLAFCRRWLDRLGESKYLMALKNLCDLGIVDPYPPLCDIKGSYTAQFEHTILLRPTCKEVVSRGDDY
Protocol: HUVEC cells (Lonza) are seeded in 96-well tissue culture microplates and cultured for 24 hours prior to addition of test compounds (11 point range of serial dilutions) or DMSO vehicle. After 24 hours, whole cell extracts are prepared by lysing cells in cell extraction buffer (Cell Signaling) containing protease and phosphatase inhibitors (Calbiochem). Insoluble material is removed by centrifugation and samples are diluted and boiled in SDS-PAGE buffer. Proteins are resolved by SDS-PAGE and transferred to PVDF membranes. Membranes are blocked then incubated with the appropriate primary antibodies, NMet-14-3-3γ (Novus) and β-actin (Sigma), followed by incubation with secondary IRDye 680- or 800CW-conjugated antibodies (Li-Cor). Membranes are scanned on the Odyssey (Li-Cor) and signals corresponding to N-Met14-3-3γ and β-actin are quantified using LiCor software. Compound EC50s are obtained by curve-fitting the ratios of unprocessed N-Met14-3-3γ protein signal over β-actin protein signal using XLfit4 Microsoft Excel curve-fitting software and are reported as pEC50, i.e., −log(EC50), where EC50 is the molar concentration at 50% effective (maximal) response.
TABLE 1 lists MetAP2 inhibition for some of the compounds shown in the examples, where larger pIC50 and pEC50 values represent higher potency. The compounds shown in TABLE 1 were tested in accordance with the enzyme assay (pIC50) described in the specification beginning at page 35, in which the MetAP2 enzyme is complexed with cobalt or manganese ions, and in accordance with the cellular assay (pEC50) described in the specification beginning at page 36.

MetAP2 [3] = target: T1, MetAP2; test: Enzyme assay: inhibition of MetAP2 (Met-AMC substrate, fluorescence); assay type: biochemical; design: made in house; host or cells: Spodoptera frugiperda Sf9 cells (baculovirus, pFastBac)
Protocol: DNA encoding the full-length sequence of human MetAP2 enzyme is amplified by PCR and cloned into a pFastBac expression vector (Invitrogen). Recombinant baculovirus incorporating the MetAP2 construct is generated by transposition using the Bac-to-Bac system (Invitrogen). The expression of recombinant protein is carried out by infection of Spodoptera frugiperda Sf9 cells (Invitrogen) in 5 L Wave Bioreactors (Wave Biotech). Recombinant protein is isolated from cellular extracts by binding to an SP Hitrap Fast Flow or SP Sepharose (Sigma) column, and the protein is eluted using a NaCl gradient. Partially purified extracts of MetAP2 are further purified by an AKTA FPLC over a Superdex-200 column (GE). The purity of MetAP2 protein is determined on denaturing SDS-PAGE gel. Purified MetAP2 protein is concentrated to a final concentration of 17 mg/mL or 2.5 mg/mL. The protein is stored at −78° C. in a buffer containing 10 mM HEPES pH 7.4, 150 mM NaCl, and 1 mM CoCl2 or in a buffer containing 20 mM HEPES pH 7.4, 120 mM NaCl, and 5 mM MnCl2.
The inhibition of MetAP2 is determined using a black 384-well-plate format under the following reaction conditions: 50 mM Hepes pH 7.5, 100 mM NaCl, 10 μM MnCl2 or 10 μM CoCl2, 0.005% Brij35®, 1 mM TCEP, 1% DMSO. To initiate the assay, 4 μL of 5 to 50 nM MetAP2 enzyme solution (enzyme final concentration is 2 to 20 nM) is added to each well, followed by the addition of 2 μL of the test compound (2.5-fold serial dilutions for 11 data points for each test compound) in a buffer solution containing 5% DMSO. Next, 4 μL of a substrate solution (2.5×Km of Met-AMC) is added to each well of the plate (final substrate concentration at Km value). The reaction rate is monitored by reading fluorescence at 460 nm with excitation wavelength at 330 nm for 10 to 30 minutes using a fluorescence plate reader. The results for each well are expressed as percent inhibition and calculated using the equation: […]

[4] = Hypoglycemic activity in KKA^y mice; assay type: in vivo; settings: 10 mg/kg once daily oral gavage, 4-week treatment, male KKA^y mice, mean±SD of 8 animals, p < 0.025 vs. control
Protocol: Six-week-old male KKA^y mice are obtained from commercial vendors and placed on standard chow. Treatment with a MetAP2 inhibitor is initiated after 8-day acclimization. The MetAP2 inhibitor is formulated in an aqueous 0.5% methylcellulose solution, which is administered once daily through oral gavage. Control animals are treated with the equivalent volume of aqueous 0.5% methylcellulose solution without the compound. After 4 weeks, blood is collected from the tail vein of each of the mice. Glycated hemoglobin levels are measured using a Tosoh HLC-723G8 automated glycohemoglobin analyzer, and plasma glucose levels are measured using a Hitachi model 7180 automated glucose analyzer. For evaluation of the hypoglycemic activity of the MetAP2 inhibitor, statistical differences between control- and compound-treated groups are analyzed using a one-tailed Williams test.
TABLE 3 lists glycated hemoglobin (GHb) and plasma glucose (PG) levels in KKA^y mice after a 4-week treatment with the compound shown in Example 1. The study was conducted in accordance with the protocol described in the specification beginning at page 37, using the dose indicated in table. Values are indicated by mean±standard deviation of 8 animals in each group.

[5] = MetAP2 enzyme complexed with cobalt ions, read-out: MetAP2 Co pIC50 (converted)

Row | IC50 (MetAP2 [3]; MetAP2 enzyme complexed with manganese ions, read-out: MetAP2 Mn pIC50 (converted)) [nM] | SMILES | BWL ([1]; 3 mg/kg) [%] | EC50 (MetAP2 [2]) [nM] | IC50 (MetAP2 [3]; [5]) [nM] | GHb (glycated hemoglobin) ([4]; control 6.8 ± 0.4) [%] | PG (plasma glucose) ([4]; control 436.6 ± 64.4) [mg/dL] | BWL ([1]; 1 mg/kg) [%]
1 | 200 | CO[C@@H]1[C@H](OCCP(=O)(c2ccccc2)c2ccccc2)CC[C@]2(CO2)[C@H]1[C@@]1(C)O[C@@H]1CC=C(C)C [Example 1, (2-(((3R,4S,5S,6R)-5-methoxy-4-((2R,3R)-2-methyl-3-(3-methylbut-2-en-1-yl)oxiran-2-yl)-1-oxaspiro[2.5]octan-6-yl)oxy)ethyl)diphenylphosphine oxide] | 18 | 4.79 | 44.7 | 5.6 ± 0.4 | 296.5 ± 77.4 | 
2 |  | CO[C@@H]1[C@H](OCCP(=O)(c2ccc(C)cc2)c2ccc(C)cc2)CC[C@]2(CO2)[C@H]1[C@@]1(C)O[C@@H]1CC=C(C)C [Example 2, (2-(((3R,4S,5S,6R)-5-methoxy-4-((2R,3R)-2-methyl-3-(3-methylbut-2-en-1-yl)oxiran-2-yl)-1-oxaspiro[2.5]octan-6-yl)oxy)ethyl)di-p-tolylphosphine oxide] |  | 6.61 |  |  |  | 
3 |  | CO[C@@H]1[C@H](OCCP(=O)(OC)OC)CC[C@]2(CO2)[C@H]1[C@@]1(C)O[C@@H]1CC=C(C)C [Example 4, dimethyl (2-(((3R,4S,5S,6R)-5-methoxy-4-((2R,3R)-2-methyl-3-(3-methylbut-2-en-1-yl)oxiran-2-yl)-1-oxaspiro[2.5]octan-6-yl)oxy)ethyl)phosphonate] |  | 3.47 |  |  |  | 
4 |  | CCOP(=O)(CCO[C@@H]1CC[C@]2(CO2)[C@@H]([C@@]2(C)O[C@@H]2CC=C(C)C)[C@@H]1OC)OCC [Example 5, diethyl (2-(((3R,4S,5S,6R)-5-methoxy-4-((2R,3R)-2-methyl-3-(3-methylbut-2-en-1-yl)oxiran-2-yl)-1-oxaspiro[2.5]octan-6-yl)oxy)ethyl)phosphonate] |  | 6.17 | 97.7 |  |  | 18
